Several values for one entry are separate records, joined by “and”; a condition that tells them apart may be missing. Identical values can stand only once. Entries after “also recorded” stand apart in the source; their conditions may differ.
Legend:
[1] = system: M2e; set-up: species or system BALB/c mice; conditions: mouse, in vivo, sc
[2] = system: Influenza virus (A/PR8/8/34 strain, H1N1); assay type: in vivo, BALB/c mice; conditions: mouse, in vivo
[3] = system: M2e; set-up: species or system BALB/c mice; conditions: mouse, in vivo
[4] = system: M2e; set-up: species or system BALB/c mice; conditions: mouse, in vivo; remark: listed apart in the source

| Sequence | anti-M2e antibody titer, comparison in words [1] | other results |
| --- | --- | --- |
| SLLTEVETPIRNEWCGCRCNCDCSSD [M2eC162122] | higher antibody titer than that of M2e |  |
| SLLTEVETPIRNEWGCRCNCDCSSD [M2eC2122] | increased anti-M2e antibody titer than M2eC21 |  |
| SLLTEVETPIRNEWGCRCNCCCDSSD [M2eC212121] | induced a high anti-M2e antibody titer |  |
| SLLTEVETPIRNEWGCRCNCDSCSD [M2eC2123] | increased anti-M2e antibody titer than M2eC21 |  |
| SLLTEVETPIRNEWCGCRCNCDSSD [M2eC1621] | increased anti-M2e antibody titer than M2eC21 |  |
| SLLTEVETPIRNEWCGCRCNCDCSCSCD [M2eC1621222324] | higher than that of M2eC162122 |  |
| SLLTEVETPIRNEWGCRCNCDCSCSCD [M2eC21222324] | higher than that of M2eC212223 |  |
| SLLTEVETPIRNEWCGCRCNCDCSCSD [M2eC16212223] | higher than that of M2eC162122 |  |
| SLLTEVETPTRSEWECRCSCDCSCSD [swM2eC212223] |  | Survival rate [2]: 9/9 and 7/8; anti-M2e antibody titer immediately before challenge [3]: the highest; also recorded: high anti-M2e antibody titer |
| SLLTEVETPIRNEWGCRCNCDCSCSD [M2eC212223] | higher antibody titer than that of M2e | anti-M2e antibody titer just before challenge [4]: could induce a high anti-M2e antibody titer |
| SLLTEVETPIRNECWCGCRCNCDSSD [M2eC151621] | antibody titer comparable to M2e |  |
